In patent US20260207530A1, “USE FOR AMELIORATION OF INTESTINAL DISEASES USING ALLULOSE” (SAMYANG CORPORATION, priority 2022, published 2026):

Experiments:
Assay type in all cases: cell-based, human
[1] = system: TLR4/NF-κB signaling and TLR4/MAPK signaling; test: Expression of TLR4/NF-κB and TLR4/MAPK signaling factors in HT-29 cells with LPS-induced inflammation (RT-PCR, Western blot); conditions: HT-29, allulose 5, 10, 20 mM, LPS 1 μg/ml
Protocol: HT-29 cells were treated simultaneously with LPS (1 μg/ml) and allulose, and reacted for 8 hours. Specifically, HT-29 cells were seeded at a concentration of 2×10^5 cells/well in 24-well plates and cultured in an incubator at 37° C. and % CO2 for 6-7 days. Allulose dissolved in RPMI 1640 medium, which is a HT-29 culture medium, was treated simultaneously at concentrations of 5, 10, and 20 mM, and after 8 hours, LPS (1 μg/ml) was treated to induce inflammation for 24 hours.
The gene and protein expression levels of Factors involved in TLR4/NF-κB signaling and TLR4/MAPK signaling were confirmed using RT-PCR and Western blot. After extracting RNA from cells using Trizol, cDNA was synthesized using a cDNA synthesis kit, and the gene expression levels were measured by qRT-PCR using primers designed for each gene. The PCR conditions used were denaturation at 95° C. for 15 seconds, annealing at 62° C. for 30 seconds, and elongation at 72° C. for 1 minute. For protein expression analysis, proteins were extracted from cultured cells using RIPA lysis buffer. The extracted proteins were pretreated by reacting at 95° C. for 5 minutes, and then separated by electrophoresis in SDS-PAGE. After transferring the protein to the PVDF membrane, it was blocked in 5% (w/v) BSA solution for 1 hour, and the primary antibody for each factor was diluted 1:1000 with 5% (w/v) BSA solution and reacted at 4° C. for 1 day. The membrane reacted with the primary antibody was reacted with the secondary antibody in tris-buffered saline solution containing 0.1% (v/v) Tween 20 for 1 hour at room temperature. The bands were detected using the LAS 4000 system, and the expression density was calculated using image detection software (image J software) to calculate the expression amount.

[2] = system: mucin genes (MUC2, MUC5AC, MUC5B); test: Mucin gene expression in HT-29 cells with LPS-induced inflammation (RT-PCR); conditions: HT-29, RT-PCR, allulose 5, 10, 20 mM, LPS 1 μg/ml 24 hours
Protocol: The effect of allulose on expression level of mucins was confirmed in HT-29 cells with LPS-induced inflammation. Specifically, HT-29 cells were seeded at a concentration of 2×10^5 cells/well in 24-well plates and cultured in an incubator at 37° C. and % CO2 for 6-7 days. Allulose dissolved in RPMI 1640 medium of a HT-29 culture medium, was simultaneously treated at concentrations of 5, 10, and 20 mM, and after 8 hours, LPS (1 μg/ml) was treated to induce inflammation for 24 hours. Afterwards, the cells were washed with PBS, RNA was extracted from the cells using Trizol, and cDNA was synthesized using a cDNA synthesis kit. Then, the expression level of the gene was assessed by qRT-PCR using primers produced for mucin genes (MUC2, MUC5AC, MUC5B) that protected the intestinal mucosa. The PCR conditions used were denaturation at 95° C. for 15 seconds, annealing at 62° C. for 30 seconds, and elongation at 72° C. for 1 minute.

[3] = system: TLR4/NF-κB signaling; test: Expression of TLR4/NF-κB signaling factors in Caco-2 cells with LPS-induced inflammation (RT-PCR, Western blot); conditions: Caco-2, allulose 5, 10, 20 mM, LPS 1 μg/ml 24 hours
Protocol: The anti-inflammatory effect of allulose was confirmed in Caco-2 cells with inflammation induced with LPS (Lipopolysaccharide). The gene and protein expression levels of factors (p50, p65, TLR4, MyD88, IKKα, IKKβ, IKβα, IRAK4, TRAF6) related to TLR4/NF-κB signaling, which is a signaling that mediates the inflammatory response, were confirmed through RT-PCR and Western blot.
Specifically, Caco-2 cells were cultured and differentiated at a density of 2×10^5 cells/well in 24-well plates and simultaneously treated with allulose dissolved in MEM medium as culture medium of Caco-2 cells, at concentrations of 5, 10, and 20 mM. After 6 hours, LPS (1 μg/ml) was treated to induce inflammation for 24 hours. The culture was performed in an incubator at 5% CO2 and 37° C.
As a negative control, Caco-2 cells not treated with LPS were used. As a positive control, the differentiated Caco-2 cells which were treated with LPS to induce inflammation but not treated with allulose were used.
After extracting RNA from the cells using Trizol, cDNA was synthesized using a cDNA synthesis kit, and the expression level of the genes was confirmed by qRT-PCR using primers designed for each gene. The PCR conditions used were denaturation at 95° C. for 15 seconds, annealing at 62° C. for 30 seconds, and an elongation process at 72° C. for 1 minute. For protein expression analysis, proteins were extracted from the cultured cells using RIPA lysis buffer. The extracted proteins were pretreated by reaction at 95° C. for 5 minutes, and then separated by electrophoresis on SDS-PAGE. After the proteins were transferred to a PVDF membrane, they were blocked in a 5% (w/v) BSA solution for 1 hour, and the primary antibodies for each factor were diluted 1:1000 in a 5% (w/v) BSA solution and reacted at 4° C. for one day. […] The bands were detected using a LAS 4000 system, and the expression density was calculated using image detection software (Image J software) to calculate the expression amount.

[4] = system: Prostaglandin E2 and COX-2; test: Prostaglandin E2 (ELISA) and COX-2 (RT-PCR) in Caco-2 cells with LPS-induced inflammation; conditions: allulose 5, 10, 20 mM 6 hours, then LPS 1 μg/ml 12 hours
Protocol: Caco-2 cells were cultured in 24-well plates at a density of 2×10^5 cells/well. The medium was replaced every two days, and allulose was simultaneously treated at concentrations of 5 mM, 10 mM, and 20 mM, and cultured for 6 hours after treatment and reacted for 12 hours after LPS (1 μg/ml) treatment. The supernatant was used for ELISA analysis, and RNA was extracted from the cells using Trizol, and cDNA was synthesized using a cDNA synthesis kit. Then, the expression level of the genes was assessed by qRT-PCR using primers designed for each gene. The PCR conditions used were denaturation at 95° C. for 15 seconds, annealing at 62° C. for 30 seconds, and an elongation process at 72° C. for 1 minute.

[5] = system: polarized Caco-2 cells; test: Transepithelial electrical resistance (TEER) in polarized Caco-2 cells treated with IFN-γ/TNF-α; conditions: polarized Caco-2, IFN-γ 10 ng/ml 24 hours, allulose 1 hour, TNF-α 10 ng/ml 6 hours; vs TEER decreased by IFN-γ/TNF-α
Protocol: Transepithelial electrical resistance (TEER) was measured as an indicator of the adhesive strength between intestinal epithelial cells using allulose as an active ingredient, and the electrical resistance values of the upper and lower layers of intestinal cells for allulose materials were examined. Specifically, Caco-2 cells were seeded in the upper layer of a Transwell insert at a concentration of 5×10^4 cells/well, and 600 μl of medium without cells was added to the lower layer and cultured. The medium was replaced every 2 days, and cultured for 3 weeks to form polarization. After polarization formation, the upper layer with cells was pre-treated with IFN-γ (10 ng/ml) for 24 hours, allulose was treated at various concentrations for 1 hour, and TNF-α (10 ng/ml) was treated for 6 hours. After the reaction was completed, the electrical resistance value TEER was measured using a Millicell ERS-2 Voltohmmeter.

[6] = system: Caco-2 cells; test: ROS accumulation with DCFH-DA fluorescent probe in Caco-2 cells with LPS-induced inflammation; conditions: Caco-2, LPS 1 μg/ml and allulose 5, 10, 20 mM 12 h
Protocol: Caco- 2 cells were seeded at 5×10^4 cells/well in 96-well plates and cultured. After simultaneous treatment with LPS (1 μg/ml) and allulose at concentrations of 5 mM, 10 mM, and 20 mM, the cells were cultured for 12 h under conditions of 5% CO2 and 37° C. After removing the culture supernatant, DCF-DA was added to the medium at a concentration of 20 μM and cultured in an incubator for 30 min. After culture, the cells were washed with PBS and the amount of ROS production was measured using fluorescence absorbance at excitation of 488 nm and emission of 535 nm.

[7] = system: ZO-1 and Occludin; test: Expression of tight junction factors ZO-1 and Occludin in Caco-2 cells with LPS-induced inflammation (RT-PCR, Western blot); conditions: Caco-2, allulose 5, 10, 20 mM 6 hours, then LPS 1 μg/ml 12 hours; vs level decreased by inflammation
Protocol: Caco-2 cells were cultured in 24-well plates at a density of 2×10^5 cells/well. The medium was replaced every other day, and the cells were cultured for 6 hours after treatment with 5, 10, and 20 mM allulose, and reacted for 12 hours after treatment with LPS (1 μg/ml). After extracting RNA from the cells using Trizol, cDNA was synthesized using a cDNA synthesis kit, and the gene expression level was confirmed by qRT-PCR using primers designed for each gene. The PCR conditions used were denaturation at 95° C. for 15 seconds, annealing at 62° C. for 30 seconds, and elongation at 72° C. for 1 minute. For protein expression analysis, proteins were extracted from the cultured cells using RIPA lysis buffer. The extracted proteins were pretreated by reacting at 95° C. for 5 minutes, and then separated by electrophoresis on SDS-PAGE. After transferring the proteins to the PVDF membrane, they were blocked in a 5% (w/v) BSA solution for 1 hour, and the primary antibodies for each factor were diluted 1:1000 in a 5% (w/v) BSA solution and reacted at 4° C. for 1 day. […] The bands were detected using a LAS 4000 system, and the expression density was calculated using image detection software (image J software) to calculate the expression amount.

O=C(CO)C(O)C(O)C(O)CO (centres unmarked) [allulose]
decreased: MAPK signal (p38, p-p38, JNK, p-JNK, c-Jun, p-c-Jun, c-Fos, p-c-Fos) [1] | MyD88, IRAK4, TRAF6 expression [1] | NF-κB signal (p50, p65, p-p65, Ikkα, Ikkβ, p-Ikkαβ, Ikβα, p-Ikβα) [1] | expression level of COX-2 [1] | expression level of TLR4 [1] | expression level of MUC2 [2] | expression level of MUC5AC [2] | expression level of MUC5B [2] | expression amount of NF-κB p65/p50 [3] | expression amount of TLR4 activated by LPS [3] | expression level of factors related to TLR4/NF-κB signaling (mRNA and protein) ([3]; vs LPS control without allulose) | concentration of Prostaglandin E2 ([4]; Caco-2, ELISA of supernatant) | expression level of COX-2 ([4]; Caco-2, RT-PCR)
increased: electrical resistance value (TEER) [5] | mRNA and protein expression levels of Occludin [7] | mRNA and protein expression levels of ZO-1 [7]
reduced: accumulated ROS [6]
